Measured values taken from PubChem BioAssay (NCI).
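Five compound concentrations were applied to cells in 96-well plates for 48 hours; endpoints were derived by simple linear interpolation of the resulting dose-response curve. At the GI50, growth is halved. The concentration for full growth arrest is given as TGI.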

Experiments:
Assay in all cases: inhibition of tumour cell growth, NCI panel, 48 h
[1] = tested on: 786-0 renal
[2] = tested on: A498 renal
[3] = tested on: A549 NSCLC
[4] = tested on: ACHN renal
[5] = tested on: BT-549 breast
[6] = tested on: CAKI-1 renal
[7] = tested on: CCRF-CEM leukemia
[8] = tested on: COLO 205 colon
[9] = tested on: DU-145 prostate
[10] = tested on: EKVX NSCLC
[11] = tested on: HCC-2998 colon
[12] = tested on: HCT-116 colon
[13] = tested on: HCT-15 colon
[14] = tested on: HL-60(TB) leukemia
[15] = tested on: HOP-62 NSCLC
[16] = tested on: HOP-92 NSCLC
[17] = tested on: HS 578T breast
[18] = tested on: HT29 colon
[19] = tested on: IGROV1 ovarian
[20] = tested on: K-562 leukemia
[21] = tested on: KM12 colon
[22] = tested on: LOX IMVI melanoma
[23] = tested on: M14 melanoma
[24] = tested on: MALME-3M melanoma
[25] = tested on: MCF7 breast
[26] = tested on: MDA-MB-231 breast
[27] = tested on: MDA-MB-435
[28] = tested on: MDA-MB-468 breast
[29] = tested on: MOLT-4 leukemia

Cc1ccccc1[C@H]1C(C(=O)c2ccc(Cl)cc2)C2(N[C@@H]1c1ccccc1)C(=O)Nc1ccc(Cl)cc12 (stereo partly drawn)
GI50 [1]: 5.75 µM | TGI [1]: 11.1 µM | GI50 [2]: 6.28 µM | TGI [2]: 12.5 µM | GI50 [3]: 5.63 µM | TGI [3]: 11.5 µM | GI50 [4]: 5.89 µM | TGI [4]: 11.1 µM | GI50 [5]: 5.49 µM | TGI [5]: 10.9 µM | GI50 [6]: 4.23 µM | TGI [6]: 9.47 µM | GI50 [7]: 9.04 µM | TGI [7]: 36.8 µM | GI50 [8]: 5.56 µM | TGI [8]: 10.9 µM | GI50 [9]: 6.11 µM | TGI [9]: 12.7 µM | GI50 [10]: 4.15 µM | TGI [10]: 8.85 µM | GI50 [11]: 5.38 µM | TGI [11]: 10.5 µM | GI50 [12]: 5.04 µM | TGI [12]: 10.2 µM | GI50 [13]: 5.56 µM | TGI [13]: 11.1 µM | GI50 [14]: 9.94 µM | TGI [14]: 24.2 µM | GI50 [15]: 5.88 µM | TGI [15]: 11.3 µM | GI50 [16]: 4.07 µM | TGI [16]: 9.11 µM | GI50 [17]: 6.79 µM | TGI [17]: 39.5 µM | GI50 [18]: 5.58 µM | TGI [18]: 11.4 µM | GI50 [19]: 4.58 µM | TGI [19]: 9.64 µM | GI50 [20]: 7.49 µM | TGI [20]: 36.4 µM | GI50 [21]: 6.06 µM | TGI [21]: 13.5 µM | GI50 [22]: 5.45 µM | TGI [22]: 10.5 µM | GI50 [23]: 6.5 µM | TGI [23]: 12.6 µM | GI50 [24]: 5.63 µM | TGI [24]: 10.9 µM | GI50 [25]: 4.47 µM | TGI [25]: 9.78 µM | GI50 [26]: 5.25 µM | TGI [26]: 10.4 µM | GI50 [27]: 6.04 µM | TGI [27]: 12.1 µM | GI50 [28]: 4.98 µM | TGI [28]: 10.1 µM | GI50 [29]: 4.93 µM | TGI [29]: 16.9 µM
